Earlier results, collected in patent US20050171374A1, “Preparation of levulinic acid esters from alpha-angelica lactone and olefins; use of ester compositions as fuel additives” (priority 2004, published 2005).
Where a name gives a salt, the structure may show the parent alone.

Columns and labels:
[1] = reference [1] DIPPR
[2] = reference [1] DIPPR; remark: listed apart in the source
[3] = for Lower Heating Value [1]: reference [1] DIPPR, cells marked [3] from DOE/EIA report; for Lower Heating Value [2]: reference [2] Walters, molar group contributions

Flash Point [1] [1] [°C] | Vapor Press. (100° F.) [1] [2] [KPa] | Lower Heating Value [2] [3] [Btu/lb] | SMILES | Lower Heating Value [1] [3]
26.85 | 2.5 | 13905 | CCCCCOC=O [Amyl Formate Ester] | 12274 Btu/lb
– | – | 14909 | CCCCCOC(=O)CCC(C)=O [Amyl Levulinate] | –
12.85 | 16 | 12477 | CCO [Ethanol, reference compound] | 11500[3] Btu/lb
– | – | 11722 | CCOC(=O)CCC(C)=O [Ethyl Levulinate] | –
– | – | 13605 | CC(=O)CCC(=O)OCCC(C)C [Isoamyl Levulinate] | –
3.85 | 10.2 | 12797 | CC(C)COC=O [Isobutyl Formate] | 11377 Btu/lb
– | – | 13041 | CC(=O)CCC(=O)OCC(C)C [Isobutyl Levulinate] | –
−6 | – | 12304 | CC(C)OC=O [Isopropyl Formate] | –
– | – | 10969 | CC(=O)CCC(=O)OC(C)C [Isopropyl Levulinate] | –
−19.15 | 126.2 | 7711 | COC=O [Methyl Formate] | 6393 Btu/lb
– | – | 10773 | COC(=O)CCC(C)=O [Methyl Levulinate] | –
18 | 7.4 | 15175 | CCCCOC=O [N-Butyl Formate] | 11415 Btu/lb
– | – | 14451 | CCCCOC(=O)CCC(C)=O [N-Butyl Levulinate] | –
– | – | 13912 | CCCOC(=O)CCC(C)=O [N-Propyl Levulinate] | –
0.85 | 12.1 | 10617 | CCC(C)OC=O (stereo not shown) [Sec-Butyl Formate] | –
– | – | 11748 | CCC(C)OC(=O)CCC(C)=O (stereo not shown) [Sec-Butyl Levulinate] | –
– | – | 12010 | CC(=O)CCC(=O)OC(C)(C)C [Tert-Butyl Levulinate] | –

SMILES | Flash Point [1] [1] [°C] | Vapor Press. (100° F.) [1] [2] [KPa] | Lower Heating Value [2] [3] [Btu/lb] | Lower Heating Value [1] [3]
CCOC=O [Ethyl Formate] | −20 | 55 | 10139 | 8751 Btu/lb
COC(C)(C)C [MTBE, methyl tertiary-butyl ether, reference compound] | −28.15 | 55 | 16578 | 15100[3] Btu/lb
CO [Methanol, reference compound] | 10.85 | 32 | 8950 | 8570 Btu/lb
CCCOC=O [N-Propyl Formate] | −3.15 | 19.9 | 11792 | 9964 Btu/lb
CC(C)(C)OC=O [Tert-Butyl Formate] | −9 | 19.8 | 12873 | 11277 Btu/lb
